Key:
Format in all cases: physicochemical
[1] = Particle size distribution by laser diffraction (Malvern Mastersizer 2000), oxycodone base
[2] = Particle size by optical microscopy, number % undersize; details: mean diameter
Procedure: (§1) As a secondary analytical method, the micronized and the non-micronized oxycodone analyzed by laser diffraction with results shown in Table 1, were analyzed by optical microscopy to evaluate particle size and the results are shown in Table 2. Sample aliquots (˜50 mg for micronized and ˜225 mg for non-micronized) were dispersed in 10 ml of sunflower oil and viewed on a Nikon microscope equipped with a 10× objective. Particle size (mean diameter) was determined using Image Pro® Plus software and expressed as a number % undersize. The particle size values determined by optical microscopy as shown in Table 2 are consistent with the laser diffraction particle size data shown in Table 1.

[3] = Chemical stability on storage: assay and impurities
Procedure: (§2) Samples of Example 2 and additional samples comprising micronized and non-micronized oxycodone useful for exemplary dosage forms are tested for their chemical stability and physical stability. Based on a comparison of stability data from micronized and non-micronized samples stored at both 25° C./60% RH and 40 C.°/75% RH, no differences are observed in the impurity profile through three months of study as shown in Tables 4 and 5 for exemplary lots. The impurities analyzed include (HOXY), 14-Hydroxycodeinone; (DHOXYN), 7,8-Dihydro-8,14-Dihydroxycodeinone; (DHOXY), 7,8-Dihydro-14-hydroxycodeine; (OXYE), Oxycodone ethylenolate; (OXYN), 1-Hydroxyoxycodone and Oxycodone N-oxide. Most of the impurities are found to be below the limit of quantitation (LOQ), except for HOXY and DHOXYN which were unchanged at 0.1%. […] The solid state stability of the micronized oxycodone is monitored for particle size, XRPD, DSC, and microscopy as shown in Table 6.

[4] = Physical stability on storage: particle size (Dv90) by laser diffraction
[5] = Physical stability on storage: DSC onset melt; details: 3 mo
Procedure: The micronized lots may also be analyzed by Differential Scanning Calorimetry (DSC). DSC is performed on a TA instrument Q100 using a heating ramp from 25-235° C. at a rate of 5° C./min. […] The sharp endotherm observed is consistent with a crystalline material and the absence of other thermal events proves that there were no polymorph transformations during melting.
as §2

[6] = Physical stability on storage: microscopy; details: 3 mo
Procedure: as §1, §2

[7] = Table 1 analysis, lot 2 in duplicate
[8] = additional laser diffraction analysis, Table 3
[9] = Time 0, listed as Non-micronized Oxycodone Free Base

COc1ccc2c3c1O[C@H]1C(=O)CC[C@@]4(O)[C@@H](C2)N(C)CC[C@]314 [Non-micronized, oxycodone]
Particle size (Dv10) [1, 7]: 5.7 μ | Particle size (Dv50) [1, 7]: 20.5 μ | Particle size (Dv90) [1, 7]: 55.5 μ | Particle size (Dv90) ([1]; Table 1 analysis, lot 2 in duplicate, listed as non-micronized sample): 56 μ | Particle size (Dv10) [1, 8]: 4.9 μ | Particle size (Dv50) [1, 8]: 20.1 μ | Particle size (Dv90) [1, 8]: 50.9 μ | Particle size (Dv90) ([1]; additional laser diffraction analysis, Table 3, listed as non-micronized): 51 μ | mean particle size ([1]; oxycodone base before micronization): 51 μ | % ≦ 1μ [2]: 21.4% | % ≦ 5μ [2]: 50.7% | % ≦ 10μ [2]: 69.1% | 1-HydroxyOXY ([3]; 25° C./60% RH, 1 mo): <LOQ | DHOXY (7,8-Dihydro-14-hydroxycodeine) ([3]; 25° C./60% RH, 1 mo): <LOQ | DHOXYN (7,8-Dihydro-8,14-Dihydroxycodeinone) ([3]; 25° C./60% RH, 1 mo): 0.10% | HOXY (14-Hydroxycodeinone) ([3]; 25° C./60% RH, 1 mo): 0.08% | OXYE (Oxycodone ethylenolate) ([3]; 25° C./60% RH, 1 mo): <LOQ | OXYN ([3]; 25° C./60% RH, 1 mo): <LOQ | Other (impurities; Table 5: >0.05%) ([3]; 25° C./60% RH, 1 mo): <LOQ | Total impurities ([3]; 25° C./60% RH, 1 mo): 0.18% | Assay ([3]; 25° C./60% RH, 1 mo, listed as Non-micronized Oxycodone Free Base): 99.6% | 1-HydroxyOXY ([3]; 25° C./60% RH, 3 mo): <LOQ | DHOXY (7,8-Dihydro-14-hydroxycodeine) ([3]; 25° C./60% RH, 3 mo): <LOQ | DHOXYN (7,8-Dihydro-8,14-Dihydroxycodeinone) ([3]; 25° C./60% RH, 3 mo): 0.10% | HOXY (14-Hydroxycodeinone) ([3]; 25° C./60% RH, 3 mo): 0.08% | OXYE (Oxycodone ethylenolate) ([3]; 25° C./60% RH, 3 mo): <LOQ | OXYN ([3]; 25° C./60% RH, 3 mo): <LOQ | Other (impurities; Table 5: >0.05%) ([3]; 25° C./60% RH, 3 mo): <LOQ | Total impurities ([3]; 25° C./60% RH, 3 mo): 0.18% | Assay ([3]; 25° C./60% RH, 3 mo, listed as Non-micronized Oxycodone Free Base): 99.6% | 1-HydroxyOXY ([3]; 40° C./75% RH, 1 mo): <LOQ | DHOXY (7,8-Dihydro-14-hydroxycodeine) ([3]; 40° C./75% RH, 1 mo): <LOQ | DHOXYN (7,8-Dihydro-8,14-Dihydroxycodeinone) ([3]; 40° C./75% RH, 1 mo): 0.10% | HOXY (14-Hydroxycodeinone) ([3]; 40° C./75% RH, 1 mo): 0.08% | OXYE (Oxycodone ethylenolate) ([3]; 40° C./75% RH, 1 mo): <LOQ | OXYN ([3]; 40° C./75% RH, 1 mo): <LOQ | Total impurities ([3]; 40° C./75% RH, 1 mo): 0.18% | Assay ([3]; 40° C./75% RH, 1 mo, listed as Non-micronized Oxycodone Free Base): 99.6% | 1-HydroxyOXY ([3]; 40° C./75% RH, 3 mo): <LOQ | DHOXY (7,8-Dihydro-14-hydroxycodeine) ([3]; 40° C./75% RH, 3 mo): <LOQ | DHOXYN (7,8-Dihydro-8,14-Dihydroxycodeinone) ([3]; 40° C./75% RH, 3 mo): 0.10% | HOXY (14-Hydroxycodeinone) ([3]; 40° C./75% RH, 3 mo): 0.08% | OXYE (Oxycodone ethylenolate) ([3]; 40° C./75% RH, 3 mo): <LOQ | OXYN ([3]; 40° C./75% RH, 3 mo): <LOQ | Other (impurities; Table 5: >0.05%) ([3]; 40° C./75% RH, 3 mo): <LOQ | Total impurities ([3]; 40° C./75% RH, 3 mo): 0.18% | Assay ([3]; 40° C./75% RH, 3 mo, listed as Non-micronized Oxycodone Free Base): 99.5% | 1-HydroxyOXY ([3]; Time 0): <LOQ | DHOXY (7,8-Dihydro-14-hydroxycodeine) ([3]; Time 0): <LOQ | OXYE (Oxycodone ethylenolate) ([3]; Time 0): <LOQ | OXYN ([3]; Time 0): <LOQ | Other (impurities; Table 5: >0.05%) ([3]; Time 0): <LOQ | Total impurities ([3]; Time 0): 0.18% | Assay [3, 9]: 101.1% | DHOXYN (7,8-Dihydro-8,14-Dihydroxycodeinone) [3, 9]: 0.10% | HOXY (14-Hydroxycodeinone) [3, 9]: 0.08%

COc1ccc2c3c1O[C@H]1C(=O)CC[C@@]4(O)[C@@H](C2)N(C)CC[C@]314 [Lot 3, oxycodone]
1-HydroxyOXY ([3]; 5° C./60% RH, 1 mo (Table 4)): <LOQ | 1-HydroxyOXY ([3]; 5° C./60% RH, 3 mo (Table 4)): <LOQ | Assay ([3]; 25° C./60% RH, 1 mo): 98.5% | DHOXY (7,8-Dihydro-14-hydroxycodeine) ([3]; 25° C./60% RH, 1 mo): <LOQ | DHOXYN (7,8-Dihydro-8,14-Dihydroxycodeinone) ([3]; 25° C./60% RH, 1 mo): 0.10% | HOXY (14-Hydroxycodeinone) ([3]; 25° C./60% RH, 1 mo): 0.08% | OXYE (Oxycodone ethylenolate) ([3]; 25° C./60% RH, 1 mo): <LOQ | OXYN ([3]; 25° C./60% RH, 1 mo): <LOQ | Other (impurities; Table 5: >0.05%) ([3]; 25° C./60% RH, 1 mo): <LOQ | Total impurities ([3]; 25° C./60% RH, 1 mo): 0.18% | Assay ([3]; 25° C./60% RH, 3 mo): 98.5% | DHOXY (7,8-Dihydro-14-hydroxycodeine) ([3]; 25° C./60% RH, 3 mo): <LOQ | DHOXYN (7,8-Dihydro-8,14-Dihydroxycodeinone) ([3]; 25° C./60% RH, 3 mo): 0.10% | HOXY (14-Hydroxycodeinone) ([3]; 25° C./60% RH, 3 mo): 0.08% | OXYE (Oxycodone ethylenolate) ([3]; 25° C./60% RH, 3 mo): <LOQ | OXYN ([3]; 25° C./60% RH, 3 mo): <LOQ | Other (impurities; Table 5: >0.05%) ([3]; 25° C./60% RH, 3 mo): <LOQ | Total impurities ([3]; 25° C./60% RH, 3 mo): 0.18% | 1-HydroxyOXY ([3]; 40° C./75% RH, 1 mo): <LOQ | Assay ([3]; 40° C./75% RH, 1 mo): 100.1% | DHOXY (7,8-Dihydro-14-hydroxycodeine) ([3]; 40° C./75% RH, 1 mo): <LOQ | DHOXYN (7,8-Dihydro-8,14-Dihydroxycodeinone) ([3]; 40° C./75% RH, 1 mo): 0.10% | HOXY (14-Hydroxycodeinone) ([3]; 40° C./75% RH, 1 mo): 0.08% | OXYE (Oxycodone ethylenolate) ([3]; 40° C./75% RH, 1 mo): <LOQ | OXYN ([3]; 40° C./75% RH, 1 mo): <LOQ | Other (impurities; Table 5: >0.05%) ([3]; 40° C./75% RH, 1 mo): <LOQ | Total impurities ([3]; 40° C./75% RH, 1 mo): 0.18% | 1-HydroxyOXY ([3]; 40° C./75% RH, 3 mo): <LOQ | Assay ([3]; 40° C./75% RH, 3 mo): 99.5% | DHOXY (7,8-Dihydro-14-hydroxycodeine) ([3]; 40° C./75% RH, 3 mo): <LOQ | DHOXYN (7,8-Dihydro-8,14-Dihydroxycodeinone) ([3]; 40° C./75% RH, 3 mo): 0.10% | HOXY (14-Hydroxycodeinone) ([3]; 40° C./75% RH, 3 mo): 0.08% | OXYE (Oxycodone ethylenolate) ([3]; 40° C./75% RH, 3 mo): <LOQ | OXYN ([3]; 40° C./75% RH, 3 mo): <LOQ | Other (impurities; Table 5: >0.05%) ([3]; 40° C./75% RH, 3 mo): <LOQ | Total impurities ([3]; 40° C./75% RH, 3 mo): 0.18% | 1-HydroxyOXY ([3]; Time 0): <LOQ | Assay ([3]; Time 0): 100.4% | DHOXY (7,8-Dihydro-14-hydroxycodeine) ([3]; Time 0): <LOQ | DHOXYN (7,8-Dihydro-8,14-Dihydroxycodeinone) ([3]; Time 0): 0.11% | HOXY (14-Hydroxycodeinone) ([3]; Time 0): 0.07% | OXYE (Oxycodone ethylenolate) ([3]; Time 0): <LOQ | OXYN ([3]; Time 0): <LOQ | Other (impurities; Table 5: >0.05%) ([3]; Time 0): <LOQ | Total impurities ([3]; Time 0): 0.18% | Particle size (Dv90) ([4]; 25° C./60% RH, 1 month): 9 μ | Particle size (Dv90) ([4]; 25° C./60% RH, 3 months): 10 μ | Particle size (Dv90) ([4]; 25° C./60% RH, 6 months): 10 μ | Particle size (Dv90) ([4]; 25° C./60% RH, 9 months): 8 μ | Particle size (Dv90) ([4]; 25° C./60% RH, 12 months): 8 μ | Particle size (Dv90) ([4]; 40° C./75% RH, 1 month): 9 μ | Particle size (Dv90) ([4]; 40° C./75% RH, 3 months): 11 μ | Particle size (Dv90) ([4]; 40° C./75% RH, 6 months): 10 μ | Particle size (Dv90) ([4]; Time 0): 6 μ | DSC Onset Melt ([5]; 25° C./60% RH): 221.9 °C | DSC Onset Melt ([5]; 40° C./75% RH): 221.9 °C | Microscopy, ≦10 μ ([6]; 25° C./60% RH): 98.3% | Microscopy, ≦10 μ ([6]; 40° C./75% RH): 94.5%
